Measurements as given in patent publication US12195490B2, “STRAD-binding agents and uses thereof” (The Regents of the University of California, priority 2020, dated 2025).
pIC50: −log10 of the molar value.

Key:
[1] = target: T1, LKB1 (Homo sapiens, UniProt Q15831+Q7RTN6); experiment: in vitro LKB1 functional activity; format: biochemical; details: APA analogs
T1 sequence (Q15831 1-433): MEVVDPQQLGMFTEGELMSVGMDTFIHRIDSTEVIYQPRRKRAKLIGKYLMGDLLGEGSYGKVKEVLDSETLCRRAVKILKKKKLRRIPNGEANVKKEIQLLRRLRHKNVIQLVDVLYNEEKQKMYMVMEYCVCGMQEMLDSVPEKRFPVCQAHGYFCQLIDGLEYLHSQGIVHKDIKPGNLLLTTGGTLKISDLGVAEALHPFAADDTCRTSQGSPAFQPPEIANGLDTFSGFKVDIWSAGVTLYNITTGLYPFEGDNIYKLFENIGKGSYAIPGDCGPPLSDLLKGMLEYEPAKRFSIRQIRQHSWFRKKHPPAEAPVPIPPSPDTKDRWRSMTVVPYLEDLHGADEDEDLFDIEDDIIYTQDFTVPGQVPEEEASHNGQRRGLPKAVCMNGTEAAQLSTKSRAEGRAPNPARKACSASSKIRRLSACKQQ
T1 sequence (Q7RTN6 1-431): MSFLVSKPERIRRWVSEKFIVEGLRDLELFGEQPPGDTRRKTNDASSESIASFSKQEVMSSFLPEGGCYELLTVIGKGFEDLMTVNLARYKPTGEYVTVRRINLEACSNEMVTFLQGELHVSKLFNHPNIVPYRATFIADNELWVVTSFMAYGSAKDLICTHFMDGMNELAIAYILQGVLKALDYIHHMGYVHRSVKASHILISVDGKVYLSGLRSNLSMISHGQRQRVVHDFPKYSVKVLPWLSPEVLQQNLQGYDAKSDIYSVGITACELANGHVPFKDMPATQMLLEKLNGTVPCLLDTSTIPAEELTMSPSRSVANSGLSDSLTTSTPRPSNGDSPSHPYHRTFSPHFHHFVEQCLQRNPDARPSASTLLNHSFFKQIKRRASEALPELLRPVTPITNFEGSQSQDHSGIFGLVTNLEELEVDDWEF
T1 sequence (Q9Y376 1-341 partner): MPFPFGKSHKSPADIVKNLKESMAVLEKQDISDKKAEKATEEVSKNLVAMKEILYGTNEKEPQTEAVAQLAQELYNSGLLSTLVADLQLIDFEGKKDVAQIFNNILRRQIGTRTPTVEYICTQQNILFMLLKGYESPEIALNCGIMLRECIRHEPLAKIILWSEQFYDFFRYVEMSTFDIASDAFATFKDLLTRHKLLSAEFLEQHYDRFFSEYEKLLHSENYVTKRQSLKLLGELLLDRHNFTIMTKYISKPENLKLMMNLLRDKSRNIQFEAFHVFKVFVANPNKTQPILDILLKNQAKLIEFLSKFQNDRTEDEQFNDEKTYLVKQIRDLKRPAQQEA

[2] = tested on: most sensitive cancer cell line; experiment: cell activity: CTG anti-proliferation in most sensitive cancer cell line; format: cell-based; details: APA analogs
[3] = target: T1, LKB1; experiment: LKB1 kinase assay with recombinant LKB1 (LKB1 in vitro activation); format: biochemical
Source text: Screening in human cancer cell lines has identified cell lines responsive to LKB1 activation and predictive biomarkers for compound development have been determined. Installation of a novel polar functionality specifically designed to target STRAD's unique phosphate-binding residues led to the identification of compound SU-329 which is currently progressing through efficacy models evaluating tumor growth inhibition. The terms SU-329 and SU20668-0329-01 refer to the same compound.
Small Molecule Activation of the LKB1 Tumor Suppressor. Cancer treatment has been considerably advanced by the relatively recent development of small molecules capable of inhibiting oncogenic kinase signaling, but exogenous enhancement of tumor suppressive signaling remains elusive. Here, we sought to design small molecules capable of activating the tumor suppressor kinase LKB1. Designing compounds capable of increasing kinase activity has been more structurally challenging than those aimed at inhibiting them: apart from the ATP-binding pocket, there is rarely a site that would be conducive to binding a small molecule. Unlike most protein kinases, LKB1 signals as part of an obligate trimer consisting of itself, a scaffolding protein (MO25), and a pseudokinase (STRAD). As part of its mechanism of activation, LKB1 must bind to an ATP-bound STRAD to take on its active kinase conformation. […]

[4] = tested on: ACHN cell line; experiment: Drug screen of the SelleckChem kinase inhibitor library with and without SU-329, Cell-Titer Glo after 5 days; format: cell-based; details: kinase inhibitors 200 nM with and without 5 μM SU-329
Procedure: FIG. 8. Drug screen identifies signaling pathways that affect the impact of LKB1 activation. Drug screen of the SelleckChem kinase inhibitor library was performed in the ACHN cell line. Sensitivity to kinase inhibitors used at 200 nM with and without 5 μM of SU-329 was measured after 5 days with Cell-Titer Glo. […] The terms SU-329 and SU20668-0329-01 refer to the same compound.

SMILES: CO[P@](C)(=O)CS(=O)(=O)c1ccc(NC(=O)c2nc(-c3ccc(C)cc3)cnc2N)cc1 [SU20668-0520, (S)-methyl (4-(3-amino-6-p-tolylpyrazine-2-carboxamido)phenylsulfonyl)methyl(methyl)phosphinate]
- LKB1 % Act. Increase [1]: A (A=>4000%)
- pIC50 [2]: > 5.52

SMILES: CCO[P@](=O)(CC)CS(=O)(=O)c1ccc(NC(=O)c2nc(-c3ccc(C)cc3)cnc2N)cc1 [SU20668-0521, (R)-ethyl (4-(3-amino-6-p-tolylpyrazine-2-carboxamido)phenylsulfonyl)methyl(ethyl)phosphinate]
- LKB1 % Act. Increase [1]: A (A=>4000%)
- pIC50 [2]: > 5.52

SMILES: CCO[P@@](=O)(CC)CS(=O)(=O)c1ccc(NC(=O)c2nc(-c3ccc(C)cc3)cnc2N)cc1 [SU20668-0522, (S)-ethyl (4-(3-amino-6-p-tolylpyrazine-2-carboxamido)phenylsulfonyl)methyl(ethyl)phosphinate]
- LKB1 % Act. Increase [1]: B (B=399-2000%)
- pIC50 [2]: > 5.52

SMILES: COP(=O)(CS(=O)(=O)c1ccc(NC(=O)c2nc(-c3ccc(C)cc3)cnc2N)cc1)OC [SU-329]
- LKB1 in vitro activation [3]: Single digit micro-molar
- response of LKB1 stimulation under inhibition of GSK-3 [4]: reduced the response of LKB1 stimulation
- response of LKB1 stimulation under inhibition of mTOR and components of the PI3K [4]: attenuated the response of LKB1 stimulation
